Data: the supplement of paper PMC10307832

Legend:
Test in all cases: relative viability (nuclei count vs DMSO), 5 days (fraction); higher = more cells survive
[1] = compound: CNC(=O)c1ccccc1Sc1ccc2c(/C=C/c3ccccn3)n[nH]c2c1 [Axitinib] + O=C(CCCCCCC(=O)Nc1ccccc1)NO [Vorinostat] (partner 1 µM)
How it was run: (§1)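 Lung cancer cell lines were pin-tool dosed in 1536-well plates on the day after seeding, with either a lone drug or a fixed anchor-drug dose plus five library-drug doses (not always all listed) in √10 steps. Nuclei were counted on 4× images after 5 days. Relative viability is the ratio of treated-well to vehicle-well nuclei counts, with each value a median of duplicate plates.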

[2] = compound: Nc1nc(Nc2ccc3c(c2)CC[C@@H](N2CCCC2)CC3)nn1-c1cc2c(nn1)-c1ccccc1CCC2 [Bemcentinib] + Cc1nc(Nc2ncc(C(=O)Nc3c(C)cccc3Cl)s2)cc(N2CCN(CCO)CC2)n1 [Dasatinib] (partner 0.075 µM)
How it was run: as §1

[3] = compound: CC1=CC=C(C=C1)C(=O)CN2C3=C(CCCC3)SC2=N [Pifithrin_alpha] + CS(=O)(=O)CCNCc1ccc(-c2ccc3ncnc(Nc4ccc(OCc5cccc(F)c5)c(Cl)c4)c3c2)o1 [Lapatinib] (partner 2 µM)
How it was run: as §1

[4] = compound: CC1=CC=C(C=C1)C(=O)CN2C3=C(CCCC3)SC2=N [Pifithrin_alpha] + CC1(C)CCC(c2ccc(Cl)cc2)=C(CN2CCN(c3ccc(C(=O)NS(=O)(=O)c4ccc(N[C@H](CCN5CCOCC5)CSc5ccccc5)c(S(=O)(=O)C(F)(F)F)c4)cc3)CC2)C1 [Navitoclax] (partner 0.5 µM)
How it was run: as §1

Cell Line	relative viability ([1]; first compound 0.005 µM)	relative viability ([1]; first compound 0.01581 µM)	relative viability ([1]; first compound 0.05 µM)	relative viability ([1]; first compound 0.1581 µM)	relative viability ([1]; first compound 0.5 µM)	relative viability ([2]; first compound 0.04 µM)	relative viability ([2]; first compound 0.1265 µM)	relative viability ([2]; first compound 0.4 µM)	relative viability ([2]; first compound 1.265 µM)	relative viability ([2]; first compound 4 µM)	relative viability ([3]; first compound 1 µM)	relative viability ([3]; first compound 3.162 µM)	relative viability ([3]; first compound 10 µM)	relative viability ([3]; first compound 31.62 µM)	relative viability ([3]; first compound 100 µM)	relative viability ([4]; first compound 1 µM)	relative viability ([4]; first compound 3.162 µM)	relative viability ([4]; first compound 10 µM)	relative viability ([4]; first compound 31.62 µM)	relative viability ([4]; first compound 100 µM)
NCI-H2085	0.823	0.788	0.883	0.758	0.812	0.224	0.195	0.258	0.256	0.294	0.626	0.69	0.691	0.667	0.661	1.06	1.22	1.08	0.876	1.04
NCI-H2087	0.618	0.626	0.741	0.699	0.936	0.797	1.02	0.949	0.901	0.929	0.991	0.942	0.913	0.655	0.972	0.948	1.04	0.998	0.742	0.715
NCI-H2126	0.828	0.819	0.801	0.8	0.724	0.559	0.67	0.646	0.71	0.699	0.614	0.643	0.68	0.536	0.658	0.787	0.8	0.73	0.738	0.771
NCI-H2170	0.898	0.85	0.896	0.739	0.799	0.485	0.664	0.603	0.477	0.589	0.263	0.274	0.287	0.266	0.263	0.557	0.512	0.576	0.494	0.535
NCI-H2228	0.818	0.618	0.605	0.506	0.885	0.14	0.566	0.532	0.526	0.538	1.25	1.19	0.848	0.747	0.904	0.88	0.839	0.804	0.599	0.729
NCI-H2347	0.638	0.55	0.513	0.664	0.619	0.322	0.288	0.327	0.269	0.308	0.811	0.911	0.902	0.705	0.911	0.695	0.87	0.786	0.551	0.814
NCI-H2405	1.01	1.03	1.18	0.953	1.13	0.194	0.22	0.21	0.215	0.165	–	0.975	0.991	0.882	0.975	–	0.81	0.813	0.635	0.689
NCI-H3122	0.914	1.06	1.05	0.888	1.02	–	0.751	0.768	0.888	0.933	1.11	1.04	1.05	0.837	1.01	1.03	1.02	1.03	0.845	1.05
